From patent US20260091030A1, “HIGH-DOSE NALOXONE FORMULATION” (SRI INTERNATIONAL, priority 2022, published 2026)

How the values were obtained:
[1] = Initial pH stability of Naloxone hydrochloride in 10 mM buffers pH 3.0-10.6, 7 days (concentration, pH, Noroxymorphone by HPLC); type: physicochemical
Protocol: FIG. 3 is a graph that depicts the concentration of Naloxone in various buffers at t=0 and t=7. The t=7 represents samples stored at either 40° C. or 60° C. for up to 7 days. […] The 15 mg/ml was chosen for pH stability studies and a final formulation of Naloxone is planned to be at 10 mg/ml strength. The maximum possible solubility of drug substance at various buffers will be performed in a “pH solubility” study. […] Naloxone precipitated in solution maintained at pH 7.4-10.6. The glycine-sodium hydroxide buffer system fared slightly better, however not as well as the buffers that maintained pH at 3.0-6.5. It is likely that buffer strength higher than 10 mM is required for pH 7.0-11 buffer systems. […] Based on the pKa values, solubility of Naloxone is expected to be higher at lower pH conditions.
FIG. 4 is a graph that depicts the change in pH of Naloxone in various buffers t=0 and t=7. The t=7 represents samples stored at either 40° C. or 60° C. for up to 7 days. FIG. 4 follows the change in pH for the buffered naloxone samples as a function of time and temperature of storage. It appears that higher pH instability and higher temperature degradations are concerns for Naloxone formulations. Optimum buffering of Naloxone appears to occur at pH 3-4.6; at the molarity tested.
FIG. 5 is a graph that depicts pH-stability of Naloxone after 7 days at room temperature by showing Naloxone and Noroxymorphone concentrations in various buffers assayed by HPLC. Temperature and duration of sample storage are at ambient temperature for 7 days.
FIG. 6 is a graph that depicts pH-stability of Naloxone after 7 days at 40° C. and 75% relative humidity by showing Naloxone and Noroxymorphone concentrations in various buffers assayed by HPLC. Temperature and duration of sample storage are at 40° C. and 75% relative humidity for 7 days. FIG. 6 follows up on the conclusions drawn from the experiment conducted that underlies FIG. 5. Raising the temperature incudes greater formation of Noroxymorphone, and this effect is more pronounced in formulations with a higher pH.
FIG. 7 is a graph that depicts pH-stability of Naloxone after 7 days at 60° C. by showing Naloxone and Noroxymorphone concentrations in various buffers assayed by HPLC. Temperature and duration of sample storage are at 60° C. and humidity was not maintained for 7 days. At even higher temperatures, Noroxymorphone was detected in all formulations across all respective pHs.
Buffers used in intramuscular formulations range from 1-100 mM, but lower molar strengths are known to cause less myotoxicity resulting in less “pain” at the site of injection (Napaporn et al., Pharm. Dev. Technol. 5(1): 123-30 (2000). For the purpose of these initial pH stability experiment, a buffer strength of 10 mM was chosen. Buffers tested ranged from pH 3.0-10.6. Intramuscular formulations below pH 3.0 are extremely rare, owing to excessive acidity which can cause a burning sensation. Table 1 lists the various buffer systems used for this study.
Buffers were created and mixed to a concentration of 10 mM with the pH stabilized. […] Buffers tested ranged from pH 3.0-10.6. Intramuscular formulations below pH 3.0 are rare due to discomfort associated with the injection site.

[2] = pH-stability with and without buffering agents under nitrogen gas overlay / excipient compatibility study; type: physicochemical
Protocol: FIG. 16 is a graph showing pH fluctuations in samples under nitrogen gas overlay, specifically change in pH of Naloxone solutions in water and buffers at pH 3.0 and 4.6 on Day 0 and Day 7. The Day 7 represents samples stored at either room temperature, 40° C. and 75% relative humidity or 60° C. or 25° C. and 60% relative humidity (in amber vials) for up to 7 days.
Samples prepared for pH-Stability of naloxone with and without buffering agents (citrate and acetate at pH 3.0 and pH 4.6 respectively) under nitrogen gas overlay were left at 40° C.±2° C./75%±5% relative humidity (RH) and at 60° C. for a total of 5 weeks for this excipient compatibility study. A stability storage chamber was used for 40° C.±2° C./75%±5% while a regular oven was used for the 60° C. samples. Briefly, naloxone samples were prepared in 20 ml of water for injection or freshly prepared 10 mM citrate buffer and/or acetate buffer in 25 ml volumetric flask. […] The pH of the naloxone solutions was adjusted to 3.0 and 4.6 with 0.1N HCl solution. Samples were diluted up to the 25 ml mark with water for injection or citrate buffer pH 3.0 or acetate buffer pH 4.6. These naloxone solutions were filtered using 0.22 μm, 13 mm, PVDF (Pall scientific) syringe filters and pH of the filtrate was measured. The filtered solution was aliquoted into 2.0 ml clear, sterile, Type-I glass vials and closed with 13 mm red rubber closures crimped with aluminum blue flip cap seals. All vials were overlaid with nitrogen gas (filtered with 0.22u PTFE, Acro®50 Vent In-Line filter, Pall scientific) before sealing and stored at 40° C.±2° C./75%±5% relative humidity (RH) or 60° C. for 5 weeks. These samples were evaluated for pH, assay and impurities of naloxone at intervals of T=0, 1 week and T=5 weeks. […] These samples were analyzed at T=2 weeks and T=5 weeks for pH, assay and impurities for naloxone. […]
The pH and assay of naloxone for excipient compatibility samples stored at 40° C.±2° C./75%±5% RH and 60° C. on T=0-day, 1 week and T=5 weeks were evaluated.

physchem = conditions: thermodynamic from solid

Q: Which “dissolution at 15 mg/ml in buffer” value ([1]; 10 mM buffer systems at pH 7.4 (sodium phosphate monobasic/dibasic) and pH 10.6 (carbonate-bicarbonate)) does the source give for `C=CCN1CC[C@]23c4c5ccc(O)c4O[C@H]2C(=O)CC[C@@]3(O)[C@H]1C5.Cl` [Naloxone hydrochloride, (−)-17-Allyl-4, 5 α-epoxy-3,14-dihydroxymorphinan-6-one hydrochloride] here?
A: did not dissolve efficiently

Q: And the “pH of optimum buffering” value ([1]; 10 mM buffers, up to 7 days at 40° C. or 60° C.)?
A: 3-4.6

Q: And the “Noroxymorphone detected by HPLC” value ([1]; 7 days at ambient temperature, pH 7.4 sodium phosphate and pH 10 glycine buffer versus pH lower than 6.5)?
A: Greater amounts of Noroxymorphone were detected

Q: What about the “Noroxymorphone formation by HPLC” value ([1]; citrate buffer at pH 3, 7 days at 60° C.) of the same molecule?
A: significantly less Noroxymorphone formation than all of the other formulations tested

Q: And the precipitation in solution ([1]; solution maintained at pH 7.4-10.6)?
A: precipitated

Q: And the “change in pH” value ([2]; 10 mM citrate and acetate buffers at pH 3.0 and 4.6, nitrogen overlay, seven days at room temperature, 40° C./75% RH, 60° C., 25° C./60% RH (amber vials))?
A: no change in pH

Q: What about the “change in pH” value ([2]; without buffers at pH 3.0, nitrogen overlay, seven days at room temperature, 40° C./75% RH, 60° C., 25° C./60% RH (amber vials)) of the same molecule?
A: no change in pH

Q: And the “change in pH” value ([2]; without buffers at pH 4.6, nitrogen overlay, seven days)?
A: increased

Q: What about the solubility (physchem; pH 5, aqueous buffer) of the same molecule?
A: 204 mg/mL

Q: What about the solubility (physchem; pH 10, aqueous buffer) of the same molecule?
A: 90.5 mg/mL
